The test concerns imDAPs. As to the kind of experiment: Flow cytometry (FACS) analysis of FOXA2 expression in expanded imDAPs. In kind it is cell-based, human. The method, then: • 1. Individualize and collect cells by either Accutase or TrypLE treatment. • 2. Wash cells with 1 ml PBS and pellet cells at 250×g for 15 sec. • 3. Remove supernatant, add ˜200 μl of 4% PFA, mix and fix for 10 min at RT. • 4. Pellet cells at 350×g for 5 min. • 5. Wash cells by 1 ml of FACS buffer and pellet cells at 350×g for 5 min. • 6. Remove supernatant, add 200 μl/tube of FACS buffer/0.1% TritonX, mix for 10 min at RT. • 7. Wash cells by 1 ml of FACS buffer and pellet cells at 350×g for 5 min. • 8. Remove supernatant, add 200 μl/tube of primary antibody diluted in FACS buffer, mix gently, and incubate for 30 min at RT. • 9. Wash cells by 1 ml of FACS buffer and pellet cells at 350×g for 5 min. • 10. Remove supernatant, and add 200 μl of secondary antibody diluted in FACS buffer, mix gently, and incubate for 30 min at RT. • 11. Wash cells by 1 ml of FACS buffer and pellet cells at 300×g for 5 min. • 12. Remove supernatant, add 200 μl of FACS buffer, and run samples on the flow cytometry. (2) qRT-PCR • 1. For qRT-PCR analysis of mRNA gene expression, RNA should be harvested from at least 2×10^6 cells. • 2. Harvest cells, add 350 μl of buffer RLT+1% (vol/vol) s-mercaptoethanol to the well, transfer the lysate to a 1.5 ml tube, and put it immediately on ice. • 3. Perform RNA extraction using the Tiangen Kit (DP430), and follow the manufacturer's protocol ‘Purification of total RNA from animal and human cells’. • 4. When the RNA extraction was completed, determine the RNA concentration using a Nanodrop instrument. • 5. Perform the first-strand cDNA synthesis reaction with 1 μg of RNA using the HiScript TM II Q RT SuperMIX for qPCR(+gDNA wiper) Kit (Vazyme, #R223-01) for RT-qPCR. Follow the manufacturer's ‘First-Strand cDNA Synthesis’ protocol. This reaction would yield a 20 μl product. • 6. Dilute the 10 μl cDNA product in 80 μl of nuclease-free water. • 7. Pipette the diluted cDNA product (1 μl), Sybr green master mix (5 μl, Transgen, #AQ131) and 0.95 μM reverse/forward primer mix (4 μl) into a 384-well PCR plate in triplicate, either manually or using an automated pipetting robot. The complete primer panel included the target genes and the housekeeping gene (RPL13A). In the analysis, also included a sample of undifferentiated hPSCs to determine the gene expression levels relative to the expression in hPSCs. • 8. Analyze the samples by running a quantitative PCR on the LightCycler 480 instrument using a 40× cycle two-step protocol with a 60° C., 60 sec annealing/elongation step and a 95° C., 30 sec denaturation step. The average CT values from the three technical replicates were used for calculations of relative gene expression using the ΔΔCT method. For each gene, calculate the FC of the differentiated samples relative to the undifferentiated control sample using the housekeeping gene for normalization. Next, calculate the average of the FC values on the basis of the housekeeping gene. (3) Immunocytochemical Analysis • 1. Cell fixation: Remove the medium from the cells and wash with PBS. Add 4% (wt/vol) PFA (e.g., 200 μl to a well in a 48-well plate) and incubate at room temperature (RT) for 15 min. after incubation, wash the cells three times in PBS. • 2. Blocking: Remove PBS from the wells and add blocking solution to the cells, add enough volume to cover the cells. Leave the cells in blocking solution for 1 h at RT. • 3. Primary antibodies incubation: Remove the blocking solution from the cells and add the primary antibody solutions (˜100 μl/cm^2). […]
Background: In flow cytometry, cells or beads pass a laser one at a time.

As for `c1ccc2c(-c3cnn4cc(-c5ccc(N6CCNCC6)cc5)cnc34)ccnc2c1` [LDN193189], the “expression of Foxa2 (percentage of Foxa2+ imDAPs)” value (Example 9, P1 cells compared with P0 cells, DLL4/VTN-coated, FIG. 5C) is listed as “slightly decreased the expression of FOXA2 for imDAPs”. For “DLL4: Notch agonist used as second coating matrix”, the “FOXA2 expression (percentage of Foxa2+ imDAPs)” value (Example 8, VTN or DLL4/VTN coating, with or without SB431542, FIG. 4C) is “could improve FOXA2 expression”.

The values are drawn from patent US12391919B2, “Culture medium, coating matrix and method for maturing midbrain dopaminergic progenitor cells” (NUWACELL BIOTECHNOLOGIES CO., LTD., priority 2022, dated 2025).
